Test results taken from PubChem BioAssay (NCI).
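1) Cells in 96-well plates. 2) Compound, 48 h, 5 concentrations. 3) Linear interpolation between surrounding doses. 4) Unreached endpoint = highest concentration. The concentration for 50% growth inhibition is given as GI50. TGI marks complete inhibition of growth.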

Assays:
Assay in all cases: NCI anticancer screen, dose series, 48 h
HT29 colon = tested on: HT29 colon
HCC-2998 colon = tested on: HCC-2998 colon
SF-295 CNS = tested on: SF-295 CNS
HOP-62 NSCLC = tested on: HOP-62 NSCLC
SF-268 CNS = tested on: SF-268 CNS
UACC-257 melanoma = tested on: UACC-257 melanoma
MOLT-4 leukemia = tested on: MOLT-4 leukemia
OVCAR-3 ovarian = tested on: OVCAR-3 ovarian
BT-549 breast = tested on: BT-549 breast
MDA-MB-231 breast = tested on: MDA-MB-231 breast

SMILES	TGI (HT29 colon) [µM]	TGI (HCC-2998 colon) [µM]	TGI (SF-295 CNS) [µM]	TGI (HOP-62 NSCLC) [µM]	TGI (SF-268 CNS) [µM]	TGI (UACC-257 melanoma) [µM]	TGI (MOLT-4 leukemia) [µM]	TGI (OVCAR-3 ovarian) [µM]	TGI (BT-549 breast) [µM]	TGI (MDA-MB-231 breast) [µM]	GI50 (HCC-2998 colon) [µM]	GI50 (SF-295 CNS) [µM]	GI50 (HOP-62 NSCLC) [µM]	GI50 (BT-549 breast) [µM]	GI50 (SF-268 CNS) [µM]	GI50 (UACC-257 melanoma) [µM]	GI50 (MDA-MB-231 breast) [µM]	GI50 (OVCAR-3 ovarian) [µM]
CN(C)CCNC(=O)c1cccc2[nH]c(-c3ccccn3)nc12	> 66.7	> 100	> 100	> 90.8	> 59.3	> 93.6	70.6	> 100	–	–	–	–	–	–	–	–	–	–
Nc1nc(SCc2ccccc2Cl)c2[nH]cnc2n1	–	> 100	> 100	> 100	> 100	> 100	> 100	> 100	–	–	–	–	–	–	–	–	–	–
C/C(=N\NC(=S)N1CCCC1)c1nc2ncccc2[nH]1	20.2	> 100	22.6	24.6	> 100	10.7	3.7	> 100	13	> 100	–	–	–	–	–	–	–	–
Cc1nc2ccc(S(=O)(=O)Nc3nccs3)cc2c(=O)n1NS(=O)(=O)c1nccs1	> 100	> 100	> 100	> 100	> 100	> 100	> 100	> 100	> 100	> 100	–	–	–	–	–	–	–	–
C=CCCC1(C)CCCNC1=S (stereo unspecified)	> 100	> 100	> 100	> 100	–	> 100	> 100	> 100	–	–	–	–	–	–	–	–	–	–
COc1ccc2c(c1)c(-c1nc(-c3c[nH]c4ncccc34)cs1)cn2CCCCN1CCCCC1	–	3.29	3.02	2.95	3.21	3.35	–	3.24	3.13	3.08	1.74	1.6	1.48	1.66	1.59	1.8	1.61	1.76
CCCCC1C=Cn2c(=O)oc3c(OC(C)C)c(C)c(O)c1c32 (stereo unspecified)	11.7	13.6	7.16	10.5	13.2	8.78	3.33	14.8	13.4	4.87	–	–	–	–	–	–	–	–
O=C1c2ccccc2OCC12OC21C=CC(Cl)=CC1 (stereo unspecified)	36.5	42.2	–	92.1	> 100	> 100	23.5	42.1	83.7	50.9	–	–	–	–	–	–	–	–
CCC(=O)OCN(C)c1nc(N(C)COC(=O)CC)nc(N(C)COC(=O)CC)n1	98.3	68.6	> 100	> 100	–	> 100	82.9	> 100	> 100	> 100	–	–	–	–	–	–	–	–
